The structures appear in SMILES notation.

For the first test, the target named is T1, Human immunodeficiency virus type 1 protease (Human immunodeficiency virus 1, UniProt Q72874). Nature of the test: Inhibitory concentration against human immunodeficiency virus -1 protease.
`CC(C)C[C@H](NC(=O)[C@@H](NC(=O)CCCCCCCCCCCCCCC(=O)N[C@H](CC(=O)N[C@@H](Cc1ccccc1)C(=O)O)C(N)=O)C(C)O)C(=O)N[C@@H](Cc1ccccc1)C(N)=O` (some centres undefined) showed a Ki of 3000 nM.

With `CCC(C)[C@@H](NC(=O)[C@@H](NC(=O)CCCCCCCCCCCCCCC(=O)N[C@@H](Cc1ccc([N+](=O)[O-])cc1)C(=O)N[C@@H](Cc1ccccc1)C(=O)O)C(C)O)C(=O)NC(CO)C(N)=O` (some centres undefined), the Ki is 103 nM. Still for that read-out and setting: in the case of `CC[C@H](C)[C@@H](NC(=O)CCCCCCCCCCCCCCC(=O)N(C)[C@H](C(=O)N[C@@H](C(=O)NC(CO)C(N)=O)[C@@H](C)CC)[C@H](C)O)C(=O)N[C@@H](Cc1ccccc1)C(=O)O` (some centres undefined) it was 140000 nM; in that of `CCC(C)[C@@H](NC(=O)[C@@H](NC(=O)CCCCCCCCCCCCCCC(=O)N[C@@H](Cc1ccc(F)c(F)c1)C(=O)N[C@@H](Cc1ccccc1)C(=O)O)C(C)O)C(=O)NC(CO)C(N)=O` (some centres undefined), 106 nM. On the same count and under the same terms, in the case of `CCC(C)[C@@H](NC(=O)[C@@H](NC(=O)CCCCCCCCCCCCCCC(=O)N[C@H](CC(=O)N[C@@H](Cc1ccccc1)C(=O)O)C(N)=O)C(C)O)C(=O)N[C@@H](Cc1ccccc1)C(N)=O` (some centres undefined) it was 210000 nM. Compound `CC[C@H](C)[C@@H](NC(=O)[C@@H](NC(=O)CCCCCCCCCCCCCCC(=O)N[C@H](CC(=O)N[C@@H](Cc1ccccc1)C(=O)O)C(N)=O)[C@H](C)O)C(=O)N[C@@H](Cc1ccc(C(=O)c2ccccc2)cc1)C(N)=O` had a Ki of 314 nM.

For the compound `CCC(C)[C@H](NC(=O)CCCCCCCCCCCCCCC(=O)N[C@@H](CC(N)=O)C(=O)N[C@@H](CCc1ccccc1)C(=O)O)C(=O)N[C@H](Cc1ccccc1)C(N)=O` (some centres undefined), the Ki turned out to be 268 nM.

On to `CC[C@H](C)[C@@H](NC(=O)[C@@H](NC(=O)CCCCCCCCCCCCCCC(=O)N[C@H](CC(=O)N[C@@H](Cc1ccccc1)C(=O)O)C(N)=O)[C@H](C)O)C(=O)N[C@@H](Cc1ccccc1)C(=O)N[C@@H](Cc1ccccc1)C(N)=O`, for which the affinity corresponds to a Ki of 361 nM. The same measure, in the same setting: in the case of `CC[C@H](C)[C@@H](NC(=O)[C@@H](NC(=O)CCCCCCCCCCCCCCC(=O)N[C@H](CC(=O)N[C@@H](Cc1ccccc1)C(=O)O)C(N)=O)[C@H](C)O)C(=O)NC(Cc1ccc([N+](=O)[O-])c(O)c1)C(N)=O` (some centres undefined) it was 164 nM; in that of `CC[C@H](C)[C@@H](NC(=O)[C@H]([C@H](C)O)N(C)C(=O)CCCCCCCCCCCCCCC(=O)Nc1ccccc1C(=O)N[C@@H](Cc1ccccc1)C(=O)O)C(=O)NC(CO)C(N)=O` (some centres undefined), 235000 nM; in that of `CC[C@H](C)[C@@H](NC(=O)[C@H]([C@H](C)O)N(C)C(=O)CCCCCCCCCCCCCCC(=O)N[C@H](Cc1ccc(C#N)cc1)C(=O)N[C@@H](Cc1ccccc1)C(=O)O)C(=O)NC(CO)C(N)=O` (some centres undefined), 140 nM. Still for that read-out and setting: then `CCC(C)[C@@H](NC(=O)[C@@H](NC(=O)CCCCCCCCCCCCCCC(=O)N[C@@H](C(=O)N[C@@H](Cc1ccccc1)C(=O)O)c1ccc(OCc2ccccc2)cc1)C(C)O)C(=O)NC(CO)C(N)=O` (some centres undefined), with 110 nM. On to `CC[C@H](C)[C@@H](NC(=O)[C@H]([C@H](C)O)N(C)C(=O)CCCCCCCCCCCCCCC(=O)NC(CC(C)C)C(=O)N[C@@H](Cc1ccccc1)C(=O)O)C(=O)NC(CO)C(N)=O` (some centres undefined), for which the Ki came out at 273 nM. Consider `CCC(C)[C@H](NC(=O)CCCCCCCCCCCCCCC(=O)N[C@@H](CC(N)=O)C(=O)NC(Cc1ccc2ccccc2c1)C(=O)O)C(=O)N[C@H](Cc1ccccc1)C(N)=O` (some centres undefined), for which the Ki is 267 nM. Still for that read-out and setting: in the case of `CC[C@H](C)[C@@H](NC(=O)[C@H]([C@H](C)O)N(C)C(=O)CCCCCCCCCCCCCCC(=O)N[C@@H](C(=O)N[C@@H](Cc1ccccc1)C(=O)O)C(C)C)C(=O)NC(CO)C(N)=O` (some centres undefined) it was 202 nM; in that of `CCC(C)[C@H](NC(=O)CCCCCCCCCCCCCCC(=O)N[C@@H](CC(N)=O)C(=O)N[C@@H](Cc1ccc(C(=O)c2ccccc2)cc1)C(=O)O)C(=O)N[C@H](Cc1ccccc1)C(N)=O` (some centres undefined), 223 nM. On the same count and under the same terms, in the case of `CC[C@H](C)[C@@H](NC(=O)[C@@H](NC(=O)CCCCCCCCCCCCCCC(=O)N[C@H](CC(=O)N[C@@H](Cc1ccccc1)C(=O)O)C(N)=O)C(C)O)C(=O)N[C@@](C)(C(N)=O)c1cccc2ccccc12` (some centres undefined) it was 127 nM; in that of `CCC(C)[C@H](NC(=O)CCCCCCCCCCCCCCC(=O)N[C@@H](CC(N)=O)C(=O)NC(C(=O)O)C1CCCCC1)C(=O)N[C@H](Cc1ccccc1)C(N)=O` (some centres undefined), 254 nM. Same read-out and setting: then `CCC(C)[C@H](NC(=O)CCCCCCCCCCCCCCC(=O)N[C@@H](CC(N)=O)C(=O)NC(CC1CCCCC1)C(=O)O)C(=O)N[C@H](Cc1ccccc1)C(N)=O` (some centres undefined), with 285 nM.

For the compound `CC[C@H](C)[C@@H](NC(=O)[C@H]([C@H](C)O)N(C)C(=O)CCCCCCCCCCCCCCC(=O)N[C@H](CCc1ccccc1)C(=O)N[C@@H](Cc1ccccc1)C(=O)O)C(=O)NC(CO)C(N)=O` (some centres undefined), the affinity, expressed as Ki, was 160 nM. Still for that read-out and setting: in the case of `CCC(C)[C@@H](NC(=O)[C@@H](NC(=O)CCCCCCCCCCCCCCC(=O)N[C@@H](Cc1ccc(O)c([N+](=O)[O-])c1)C(=O)N[C@@H](Cc1ccccc1)C(=O)O)C(C)O)C(=O)NC(CO)C(N)=O` (some centres undefined) it was 102 nM; in that of `CC[C@H](C)[C@@H](NC(=O)[C@H]([C@H](C)O)N(C)C(=O)CCCCCCCCCCCCCCC(=O)N[C@H](Cc1ccccc1)C(=O)N[C@@H](Cc1ccccc1)C(=O)O)C(=O)NC(CO)C(N)=O` (some centres undefined), 112 nM.

As for `CC[C@H](C)[C@@H](NC(=O)[C@@H](NC(=O)CCCCCCCCCCCCCCC(=O)N[C@H](CC(=O)N[C@@H](Cc1ccccc1)C(=O)O)C(N)=O)[C@H](C)O)C(=O)N[C@@H](Cc1ccc(OCc2ccccc2)cc1)C(N)=O`, the affinity corresponds to a Ki of 414 nM. Turning to `CCC(C)[C@@H](NC(=O)C(CCC(C)C)NC(=O)CCCCCCCCCCCCCCC(=O)N[C@H](CC(=O)N[C@@H](Cc1ccccc1)C(=O)O)C(N)=O)C(=O)N[C@@H](Cc1ccccc1)C(N)=O` (some centres undefined), the affinity, expressed as Ki, was 502000 nM. Same read-out and setting: then `CCC(C)[C@H](NC(=O)CCCCCCCCCCCCCCC(=O)N[C@@H](CC(N)=O)C(=O)N[C@@H](Cc1ccc([N+](=O)[O-])cc1)C(=O)O)C(=O)N[C@H](Cc1ccccc1)C(N)=O` (some centres undefined), with 384 nM.

The next test concerns the target T1, Human immunodeficiency virus type 1 protease. Nature of the test: Inhibitory concentration against human immunodeficiency virus-1 protease.
Regarding `CC[C@H](C)[C@@H](NC(=O)[C@@H](NC(=O)CCCCCCCCCCCCCCC(=O)N[C@H](CC(=O)N[C@@H](Cc1ccccc1)C(=O)O)C(N)=O)[C@H](C)O)C(=O)N[C@@H](Cc1ccc(F)c(F)c1)C(N)=O`, 872000 nM corresponded to half-maximal inhibition (IC50). With `CC[C@H](C)[C@@H](NC(=O)[C@@H](NC(=O)CCCCCCCCCCCCCCC(=O)N[C@H](CC(=O)N[C@@H](Cc1ccccc1)C(=O)O)C(N)=O)[C@H](C)O)C(=O)N[C@H](Cc1ccc(C#N)cc1)C(N)=O`, the IC50 amounted to 1400 nM. In turn, `CC(C)C[C@H](NC(=O)[C@@H](NC(=O)CCCCCCCCCCCCCCC(=O)N[C@H](CC(=O)N[C@@H](Cc1ccccc1)C(=O)O)C(N)=O)C(C)O)C(=O)N[C@@H](Cc1ccccc1)C(N)=O` (some centres undefined) registered an IC50 of 5.4 nM. Still for that read-out and setting: in the case of `CCC(C)[C@@H](NC(=O)[C@@H](NC(=O)CCCCCCCCCCCCCCC(=O)N[C@H](CC(=O)N[C@@H](Cc1ccccc1)C(=O)O)C(N)=O)C(C)O)C(=O)N[C@@H](Cc1ccccc1)C(N)=O` (some centres undefined) it was 1.1 nM; in that of `CCC(C)[C@@H](NC(=O)C(Cc1ccc(F)c(F)c1)NC(=O)CCCCCCCCCCCCCCC(=O)N[C@H](CC(=O)N[C@@H](Cc1ccccc1)C(=O)O)C(N)=O)C(=O)N[C@@H](Cc1ccccc1)C(N)=O` (some centres undefined), 1100 nM. The same measure, in the same setting: in the case of `CC[C@H](C)[C@@H](NC(=O)[C@@H](NC(=O)CCCCCCCCCCCCCCC(=O)N[C@H](CC(=O)N[C@@H](Cc1ccccc1)C(=O)O)C(N)=O)[C@H](C)O)C(=O)N[C@@H](Cc1cc(I)c(O)c(I)c1)C(N)=O` it was 740000 nM. Still for that read-out and setting: then `CC[C@H](C)[C@@H](NC(=O)[C@@H](NC(=O)CCCCCCCCCCCCCCC(=O)N[C@H](CC(=O)N[C@@H](Cc1ccccc1)C(=O)O)C(N)=O)[C@H](C)O)C(=O)NC(CCc1ccccc1)C(N)=O` (some centres undefined), with 1300 nM; and `CC[C@H](C)[C@@H](NC(=O)[C@@H](NC(=O)CCCCCCCCCCCCCCC(=O)N[C@H](CC(=O)N[C@@H](Cc1ccccc1)C(=O)O)C(N)=O)[C@H](C)O)C(=O)N[C@@H](Cc1ccc(N)cc1)C(N)=O`, with 3600 nM.

Take `CCC(C)[C@@H](NC(=O)[C@H](C(C)O)N(C)C(=O)CCCCCCCCCCCCCCC(=O)NC(Cc1ccc(N)cc1)C(=O)N[C@@H](Cc1ccccc1)C(=O)O)C(=O)NC(CO)C(N)=O` (some centres undefined): the IC50 was determined as 1.2 nM.

The compound `CCCCC(NC(=O)CCCCCCCCCCCCCCC(=O)N[C@H](CC(=O)N[C@@H](Cc1ccccc1)C(=O)O)C(N)=O)C(=O)N[C@@H](C(=O)N[C@@H](Cc1ccccc1)C(N)=O)C(C)CC` (some centres undefined) gave an IC50 of 1600 nM. The same measure, in the same setting: then `CC[C@H](C)[C@@H](NC(=O)[C@@H](NC(=O)CCCCCCCCCCCCCCC(=O)N[C@H](CC(=O)N[C@@H](Cc1ccccc1)C(=O)O)C(N)=O)[C@H](C)O)C(=O)N1Cc2[nH]c3ccccc3c2CC1C(N)=O` (some centres undefined), with 3100 nM; and `CCC(C)[C@@H](NC(=O)C(CCc1ccccc1)NC(=O)CCCCCCCCCCCCCCC(=O)N[C@H](CC(=O)N[C@@H](Cc1ccccc1)C(=O)O)C(N)=O)C(=O)N[C@@H](Cc1ccccc1)C(N)=O` (some centres undefined), with 980 nM; and `CC[C@H](C)[C@@H](NC(=O)[C@@H](NC(=O)CCCCCCCCCCCCCCC(=O)N[C@H](CC(=O)N[C@@H](Cc1ccccc1)C(=O)O)C(N)=O)[C@H](C)O)C(=O)N[C@H](Cc1ccc(Br)cc1)C(N)=O`, with 1700 nM. The same measure, in the same setting: in the case of `CC[C@H](C)[C@@H](NC(=O)[C@H]([C@H](C)O)N(C)C(=O)CCCCCCCCCCCCCCC(=O)NC(Cc1ccc(O)cc1)C(=O)N[C@@H](Cc1ccccc1)C(=O)O)C(=O)NC(CO)C(N)=O` (some centres undefined) it was 774 nM; in that of `CC[C@H](C)[C@@H](NC(=O)C(NC(=O)CCCCCCCCCCCCCCC(=O)N[C@H](CC(=O)N[C@@H](Cc1ccccc1)C(=O)O)C(N)=O)C(C)(C)C)C(=O)N[C@@H](Cc1ccccc1)C(N)=O` (some centres undefined), 7700 nM; in that of `CC[C@H](C)[C@@H](NC(=O)[C@@H](NC(=O)CCCCCCCCCCCCCCC(=O)N[C@H](CC(=O)N[C@@H](Cc1ccccc1)C(=O)O)C(N)=O)[C@H](C)O)C(=O)N[C@@H](Cc1ccc([N+](=O)[O-])cc1)C(N)=O`, 590000 nM.

In turn, `CCC(C)[C@@H](NC(=O)C(NC(=O)CCCCCCCCCCCCCCC(=O)N[C@H](CC(=O)N[C@@H](Cc1ccccc1)C(=O)O)C(N)=O)c1ccccc1)C(=O)N[C@@H](Cc1ccccc1)C(N)=O` (some centres undefined) registered an IC50 of 2100 nM. The same measure, in the same setting: then `CCC(C)[C@@H](NC(=O)[C@H](C(C)O)N(C)C(=O)CCCCCCCCCCCCCCC(=O)NC(Cc1ccc(OP(=O)(O)O)cc1)C(=O)N[C@@H](Cc1ccccc1)C(=O)O)C(=O)NC(CO)C(N)=O` (some centres undefined), with 2100 nM.

The target in another test is Human immunodeficiency virus type 1 protease (Human immunodeficiency virus 1) (UniProt Q72874). Kind of test: Percent inhibition of human immunodeficiency virus-1 protease after 1 uM treatment.
For `CC[C@H](C)[C@@H](NC(=O)C(CC1CCCC1)NC(=O)CCCCCCCCCCCCCCC(=O)N[C@H](CC(=O)N[C@@H](Cc1ccccc1)C(=O)O)C(N)=O)C(=O)N[C@@H](Cc1ccccc1)C(N)=O` (some centres undefined), the inhibition worked out at 13%.

What is called Ki is the dissociation constant of the complex between target and ligand, obtained from inhibition or displacement. Read a low Ki as a stronger hold on the target. In general, IC50 refers to the midpoint of a concentration-inhibition curve. A high value points to weaker potency in that assay. As usually defined, the inhibition is how much of the control response was suppressed.

The values are drawn from ChEMBL document CHEMBL1143555, “Development of low molecular weight HIV-1 protease dimerization inhibitors” (J Med Chem, 2005).
